Results published in patent US10995068B2, “Synthetic sphingolipid-like molecules, drugs, methods of their synthesis and methods of treatment” (The Regents of the University of California, priority 2015, dated 2021).
“And” between values parts separate entries of the source, which are not always exact repeats. Equal values may be shown once. Read-outs that look alike come from different tables or passages of the source.

Experiments:
[1] = test system: murine hematopoietic cell line FL5.12; assay: Viability of FL5.12 cells by vital dye exclusion; assay type: cell-based; conditions: for IC50: FL5.12 cells, 48 h, vital dye exclusion, n ≥3, read-out: IC50 (μM) [95% CI]
Experimental: (§1) Cell culture studies: FL5.12 cells (murine hematopoetic cells originally obtained from Craig Thompson, Memorial Sloan Kettering Cancer Center) were maintained at 0.1-0.5 million/ml in RPMI 1640 (Mediatech) supplemented with 10% fetal calf serum (FCS, Sigma-Aldrich), 10 mM Hepes (Mediatech), 500 pg/ml recombinant IL-3 (cat #575502, Biolegend), 55 μM β-mercaptoethanol (Sigma-Aldrich), 2 mM L-glutamine (Mediatech), and antibiotics. Cells were screened for Mycoplasma every 3 months using the Look-Out Mycoplasma PCR Detection kit (cat #MP0035, Sigma).
IC50 values were calculated using GraphPad Prism (GraphPad Software, Inc, La Jolla, Calif.).

CD98 (4F2hc, SLC3A2) = assay: Surface CD98 nutrient transporter down-regulation by flow cytometry; assay type: cell-based, murine; conditions: FL5.12 cells; for % CD98 down-regulation: surface CD98 at 3 h, flow cytometry, mean ± SEM, n ≥3
Source text: (§2) In an exemplified study, nutrient transporter down-regulation was monitored by quantifying surface levels of the amino acid transporter-associated protein, CD98, by flow cytometry. Vacuolation was scored in a range from 0 to […], as determined by a vacuolation assay described in greater detail in the Materials and Methods section below.
as §1
Nutrient transporter expression: Surface CD98 (4F2hc, SLC3A2) expression was measured at 3 h using phycoerythrin (PE)-conjugated rat anti-mouse CD98 antibody (Biolegend, cat #128208); analysis was restricted to viable cells. PE conjugated Rat IgG2a, k (cat #400508, Biolegend) was used as an isotype control. For staining, 200,000 cells were pelleted, re-suspended in 100 μl FACS block (PBS with 10% FCS and 0.05% NaN3) containing 0.25 μL anti-CD98 antibody, incubated on ice for 30 min, washed twice with 1 ml FACS wash (PBS containing 2% FCS and 0.05% NaN3), and analyzed on a BD LSR II flow cytometer. Data was processed with FlowJo software (Treestar).

FL5.12 cells = assay: Vacuolation assay; assay type: cell-based, murine; design: key to Vacuolation score: 0-100 score: (3×%cat3+2×%cat2+1×%cat1)/3; cells graded 0-3 for vacuoles; conditions: for Vacuolation score / vacuolation (in words): FL5.12 cells; for Vacuolation score: 3 h in 2.5 μM compound except where otherwise indicated, mean ± SEM, n ≥3; for ability to induce vacuole formation: highest concentrations tested (30 μM); for vacuolation (in words): at any dose / highest dose tested
Experimental: as §2
Vacuolation assay: Cells were evaluated at 100× using brightfield microscopy and a Nikon TE2000-S fluorescence microscope equipped with DIC filters. Vacuolation was quantified after a 3 h incubation period in 2.5 μM compound except where otherwise indicated. To calculate a vacuolation score, vacuolation severity in at least 15 individual cells/experiment was assessed qualitatively. Scores were assigned to individual cells as follows: 0=no vacuoles, 1=very small vacuoles, 2=multiple well-defined vacuoles, 3=multiple large vacuoles. To calculate the vacuolation score associated with a compound, the following formula was used: vacuolation score=[(3×% cells in category 3)+(2×% cells in category 2)+(1×% cells in category 1)]/3.
The score is divided by 3 so that a compound with 100% of its cells in category 3 would have a vacuolation score of 100. Three independent experiments were conducted and the vacuolation scores averaged to generate a mean+/−SEM. All cells were scored by one lab member after confirming that a blinded individual scored 5 compounds with similar results.

[2] = test system: PC3 prostate cancer cells; assay: Cell Titer Glo proliferation assay in PC3; assay type: cell-based, human; conditions: Cell Titer Glo, 72 h, Mean ± SEM, n ≥ 3, read-out: IC50 values in prostate cancer cell lines, PC3
Experimental: (§3) Previously presented compounds 1-4 (FIG. 23), compounds 5-8 (FIG. 28), and control compound FTY720 (FIG. 2) were used to treat the well-established PC3 and DU145 prostate cancer lines (FIG. 29 and Table 1). A Cell Titer Glo assay was performed to measure proliferation of the cancer lines.
(§4) Cell culture studies: Sup-B15 cells are maintained at 2-3 million/mL in RPMI 1640 (Mediatech) supplemented with 10% fetal calf serum (FCS, Sigma-Aldrich), 10 mM Hepes (Mediatech), 55 μM β-mercaptoethanol (Sigma-Aldrich), 2 mM L-glutamine (Mediatech), and antibiotics. All adherent cells are maintained at 70-80% confluence. Cell are cultured in the following media: PC3 & A549, Ham's F12K (Corning Cell Gro) supplemented with 10% FCS and antibiotics; DU145 cells, MEM (Corning Cell Gro) supplemented with 10% FCS, 1 mM sodium pyruvate (Mediatech), and antibiotics; SW620 & MDA-MB-231, DMEM (Corning Cell Gro) with 10% FCS, 1 mM sodium pyruvate (Mediatech), and antibiotics; Panc-1 cells, DMEM (Corning Cell Gro) supplemented with 10% FCS and antibiotics. All of the above cell lines are available from the ATCC.
(§5) Viability assays: Cell Titer Glo assays (Cell Titer Glo Luminescent Cell Viability Assay kit, cat #G7571, Promega Corporation) are performed in clear bottom 96-well black cell culture plates (cat #655090, Greiner Bio-One, NC, USA). After plating at 1,000 cells/well in volume of 100 μl, cells are left undisturbed for at least 24 h before drug addition. After 72 h, cells are prepared for analysis by adding 10 μl of 0.1% Triton-X100 in PBS with shaking for 1 min at room temperature (RT). Cell Titer-Glo cell lysis reagent (20 μl) is then added followed by 1 min of shaking and a 10 min incubation in the dark at RT. Luminescence is detected using an IVIS imaging system (IVIS Lumina II, Perkin Elmer, USA). […] IC50s are determined using GraphPad Prism (GraphPad Software, Inc, La Jolla, Calif.). SupB-15 viability was determined by flow cytometry. Cell Titer Glo assays were performed with the other cell lines.

[3] = test system: DU145 prostate cancer cells; assay: Cell Titer Glo proliferation assay in DU145; assay type: cell-based, human; conditions: Mean ± SEM, n ≥ 3, read-out: IC50 values in prostate cancer cell lines, DU145
Experimental: as §3, §4, §5

Compound | IC50 [1] | % CD98 down-regulation (CD98 (4F2hc, SLC3A2)) | Vacuolation score (FL5.12 cells) | also measured
CCCCC=Cc1ccc(COC2CNC(CO)C2)cc1 (stereo not drawn) [Compound 118] | 5.7 µM | 9 ± 3% | 5 ± 2 | –
CCCCCCCCc1ccc(COC2CC(CO)N(C(=N)N)C2)cc1 (stereo not drawn) [Compound 132] | 14.2 µM | 35 ± 1% | 0 | ability to induce vacuole formation (FL5.12 cells): lost
CCCCCCCCc1ccc(COC2CC(CO)N(C(=N)N)C2)cc1 (stereo not drawn) [Compound 133] | 17.3 µM | 34 ± 3% | 0 | ability to induce vacuole formation (FL5.12 cells): lost
CCCCCCC=Cc1ccc(C2CCNC2CO)cc1 (stereo not drawn) [Compound 125] | 1.7 µM | 58 ± 3% | 84 ± 2 | –
CCCCCCC=Cc1ccc(C2CCN(C(C)=O)C2CO)cc1 (stereo not drawn) [Compound 135] | 46.2 µM | 40 ± 2% | 2 ± 2 | vacuolation (in words) (FL5.12 cells): failed to induce vacuolation
CCCCCCCCc1ccc([C@@H]2C[C@@H](CO)N[C@@H]2CO)cc1 [Compound 2] | – | – | – | IC50 [2]: 6.1 ± 1 µM; IC50 ([3]; 72 h): 5.7 ± 0.4 µM
CCCCCCCCc1ccc([C@@H]2CCN[C@H]2CO)cc1 [Compound 105] | 1.7 µM | 47% and 47 ± 3% | 53 and 53 ± 3 | –
CCCCCCCCCCc1ccc(COC2CNC(CO)C2)cc1 (stereo not drawn) [Compound 120] | 3.6 µM | 28 ± 1% | 36 ± 5 | –
CCCCCCCCc1ccc([C@H]2CCN[C@@H]2C)cc1 [Compound 13] | – | – | – | IC50 [2]: 4.4 ± 0.6 µM; IC50 ([3]; 72 h): 5.1 ± 0.6 µM
CCCCCCc1ccc(COC2CNC(CO)C2)cc1 (stereo not drawn) [Compound 111] | 2.7 µM | 30 ± 2% | 0 | –
CCCCCCCCCCCCCCc1ccc(COC2CNC(CO)C2)cc1 (stereo not drawn) [Compound 123] | 5.7 µM | 19 ± 1% | 3 ± 3 | –
CCCCCCCCc1ccc(C2CCNC2CO)cc1 (stereo not drawn) [Compound 8] | – | – | – | IC50 [2]: 6.5 ± 0.3 µM; IC50 ([3]; 72 h): 5.4 ± 0.3 µM
CCCCCCCCCCCCCCc1ccc(COC2CNC(CO)C2)cc1 (stereo not drawn) [Compound 116] | 10.5 µM | 12 ± 3% | 4 ± 2 | –
CCCCCCCCCCCCc1ccc(COC2CNC(CO)C2)cc1 (stereo not drawn) [Compound 114] | 10.1 µM | 13 ± 3% | 3 ± 1 | –
CCCCCCC=Cc1ccc(COC2CNC(CO)C2)cc1 (stereo not drawn) [Compound 119] | 2.4 µM | 41 ± 3% | 70 ± 1 | –
CCCCC=Cc1ccc(COC2CNC(CO)C2)cc1 (stereo not drawn) [Compound 112] | 5.5 µM | 30 ± 4% | 0 | –

Compound | IC50 [1] | % CD98 down-regulation (CD98 (4F2hc, SLC3A2)) | Vacuolation score (FL5.12 cells) | also measured
CCCCCCCCc1ccc(C2CCNC2CO)cc1 (stereo not drawn) [Compound 7] | – | – | – | IC50 [2]: 5.5 ± 0.7 µM; IC50 ([3]; 72 h): 5.3 ± 0.7 µM
CCCCCCC=Cc1ccc(COC2CNC(CO)C2)cc1 (stereo not drawn) [Compound 113] | 1.4 µM | 64 ± 1% | 27 ± 1 | –
CCCCCCCCc1ccc([C@@H]2CC(=O)N[C@@H]2CO)cc1 [Compound 11] | – | – | – | IC50 [2]: > 20 µM; IC50 ([3]; 72 h): > 20 µM
CCCCCCCCc1ccc([C@H]2CC(=O)N[C@H]2CO)cc1 [Compound 10] | – | – | – | IC50 [2]: > 20 µM; IC50 ([3]; 72 h): > 20 µM
CCCCCCCCCCCCC/C=C/[C@@H](O)[C@H](CO)N(C)C [Compound 108, dimethylsphingosine, reference compound] | 0.77 µM and 0.8 µM | 69 ± 2% | 72 ± 3 | fold more potent than sphingosine (106) ([1]; IC50, FL5.12 cells): ~5 fold
CCCCCCCCc1ccc([C@@H]2CC(=O)N[C@H]2CO)cc1 [Compound 9, (4S,5R)-5-(hydroxymethyl)-4-(4-octylphenyl)Pyrrolidin-2-one] | – | – | – | IC50 ([2]; Homo sapiens): > 20 µM; IC50 ([3]; Homo sapiens, DU-145, 72 h): > 20 µM
CCCCCCCCc1ccc([C@H]2C[C@H](CO)N[C@H]2CO)cc1 [Compound 1, (2R,3R,5R)-2,5-bis-hydroxymethyl-3-(4-octyl)phenyl pyrrolidine] | – | – | – | IC50 [2]: 7 ± 0.3 µM; IC50 ([3]; 72 h): 7.3 ± 0.8 µM
CCCCCCCCCCCCCCC[C@@H](O)[C@@H](N)CO [Compound 107, sphinganine, reference compound] | – | 47 ± 3% | 38 ± 6 | IC50 ([1]; Mus musculus): 3.5 µM
CCCCCCCCc1ccc(COC2CNC(CO)C2)cc1 (stereo not drawn) [Compound 102] | 2 µM | 63 ± 3% | 33 ± 2 | –
CCCCCCCCCCCCC/C=C/[C@@H](O)[C@@H](N)CO [Compound 106, sphingosine, reference compound] | – | 48 ± 2% | 57 ± 6 | IC50 ([1]; Mus musculus): 3.6 µM; concentration required to cause similar transporter loss (CD98 (4F2hc, SLC3A2); CD98 loss): 2.5 µM
CCCCCCCCc1ccc(COC2CNC(CO)C2)cc1 (stereo not drawn) [Compound 103] | 3 µM | 48 ± 2% | 47 ± 2 | –
CCCCCCCCc1ccc(COC2CC(CO)N(C(C)=O)C2)cc1 (stereo not drawn) [Compound 131] | 29.7 µM | 37 ± 3% | 1 ± 1 | fold less potent than analog 102 ([1]; IC50, FL5.12 cells): 10 fold; vacuolation (in words) (FL5.12 cells): no vacuolation activity
CCCCCCCCc1ccc([C@H]2CCN(C(C)=O)[C@@H]2CO)cc1 [Compound 134] | 39.7 µM | 40 ± 4% | 0 | vacuolation (in words) (FL5.12 cells): failed to induce vacuolation
CCCCCCC=Cc1ccc(COC2CC(CO)N(C)C2)cc1 (stereo not drawn) [Compound 130] | 1.9 µM | 31 ± 4% | 26 ± 2 | –
CCCCCCCCCCCCc1ccc(COC2CNC(CO)C2)cc1 (stereo not drawn) [Compound 121] | 3.9 µM | 14 ± 4% | 30 ± 2 | –
